{"source": "PubChem BioAssay (NCI)", "assay_in_all_cases": "inhibition of tumour cell growth, NCI panel, 48 h", "key": {"[1]": {"tested_on": "A498 renal"}, "[2]": {"tested_on": "COLO 205 colon"}, "[3]": {"tested_on": "HCT-116 colon"}, "[4]": {"tested_on": "HOP-92 NSCLC"}, "[5]": {"tested_on": "LOX IMVI melanoma"}, "[6]": {"tested_on": "M14 melanoma"}, "[7]": {"tested_on": "MOLT-4 leukemia"}, "[8]": {"tested_on": "U251 CNS"}, "[9]": {"tested_on": "PC-3 prostate"}}, "note": "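Grown in 96-well plates, cells were treated for 48 hours with each compound at five concentrations. Insufficient inhibition: endpoint recorded as highest concentration tested. Abbreviation: GI50, concentration required for 50% inhibition of growth. TGI marks complete inhibition of growth.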", "data": [{"compound": "CCN(CC)CCOc1ccc(CCc2cc(OC)c(OC)c(OC)c2)cc1", "values": [{"measurement": "TGI", "setting": "[1]", "value": 98.7, "unit": "µM"}, {"measurement": "TGI", "setting": "[2]", "value": 31, "unit": "µM"}, {"measurement": "TGI", "setting": "[3]", "value": "> 100", "unit": "µM"}, {"measurement": "TGI", "setting": "[4]", "value": 82.6, "unit": "µM"}, {"measurement": "TGI", "setting": "[5]", "value": 26.9, "unit": "µM"}, {"measurement": "TGI", "setting": "[6]", "value": 34.3, "unit": "µM"}, {"measurement": "TGI", "setting": "[7]", "value": 85.2, "unit": "µM"}, {"measurement": "TGI", "setting": "[8]", "value": "> 100", "unit": "µM"}]}, {"compound": "O=C(CC(=O)C1=CNc2ccccc2S1)C(=O)Nc1ccc(Cl)cc1", "values": [{"measurement": "TGI", "setting": "[1]", "value": "> 50", "unit": "µM"}, {"measurement": "TGI", "setting": "[2]", "value": "> 50", "unit": "µM"}, {"measurement": "TGI", "setting": "[3]", "value": "> 50", "unit": "µM"}, {"measurement": "TGI", "setting": "[4]", "value": "> 50", "unit": "µM"}, {"measurement": "TGI", "setting": "[5]", "value": "> 50", "unit": "µM"}, {"measurement": "TGI", "setting": "[6]", "value": "> 50", "unit": "µM"}, {"measurement": "TGI", "setting": "[7]", "value": "> 50", "unit": "µM"}, {"measurement": "TGI", "setting": "[8]", "value": "> 50", "unit": "µM"}]}, {"compound": "COC1OC(CBr)C(OC(=O)c2ccccc2)C(O)C1Br", "note": "(stereo unspecified)", "values": [{"measurement": "TGI", "setting": "[1]", "value": "> 100", "unit": "µM"}, {"measurement": "TGI", "setting": "[2]", "value": "> 100", "unit": "µM"}, {"measurement": "TGI", "setting": "[3]", "value": "> 100", "unit": "µM"}, {"measurement": "TGI", "setting": "[4]", "value": "> 100", "unit": "µM"}, {"measurement": "TGI", "setting": "[5]", "value": "> 100", "unit": "µM"}, {"measurement": "TGI", "setting": "[6]", "value": "> 100", "unit": "µM"}, {"measurement": "TGI", "setting": "[7]", "value": "> 100", "unit": "µM"}, {"measurement": "TGI", "setting": "[8]", "value": "> 100", "unit": "µM"}]}, {"compound": "C1COCCN1.C1COCCN1.NC1CCCCC1N.[Cl-].[Pt+2]", "note": "(stereo unspecified)", "values": [{"measurement": "GI50", "setting": "[1]", "value": "> 100", "unit": "µM"}, {"measurement": "TGI", "setting": "[1]", "value": "> 100", "unit": "µM"}, {"measurement": "GI50", "setting": "[2]", "value": "> 100", "unit": "µM"}, {"measurement": "TGI", "setting": "[2]", "value": "> 100", "unit": "µM"}, {"measurement": "GI50", "setting": "[3]", "value": "> 100", "unit": "µM"}, {"measurement": "TGI", "setting": "[3]", "value": "> 100", "unit": "µM"}, {"measurement": "GI50", "setting": "[4]", "value": "> 100", "unit": "µM"}, {"measurement": "TGI", "setting": "[4]", "value": "> 100", "unit": "µM"}, {"measurement": "GI50", "setting": "[5]", "value": "> 100", "unit": "µM"}, {"measurement": "TGI", "setting": "[5]", "value": "> 100", "unit": "µM"}, {"measurement": "GI50", "setting": "[6]", "value": "> 100", "unit": "µM"}, {"measurement": "TGI", "setting": "[6]", "value": "> 100", "unit": "µM"}, {"measurement": "GI50", "setting": "[7]", "value": "> 100", "unit": "µM"}, {"measurement": "TGI", "setting": "[7]", "value": "> 100", "unit": "µM"}, {"measurement": "GI50", "setting": "[8]", "value": "> 100", "unit": "µM"}, {"measurement": "TGI", "setting": "[8]", "value": "> 100", "unit": "µM"}]}, {"compound": "CCn1cc(C(=O)N/N=C/c2ccccc2)c(=O)c2cc(F)c(N3CCNC(C)C3)c(F)c21", "note": "(stereo unspecified)", "values": [{"measurement": "GI50", "setting": "[1]", "value": 1.9, "unit": "µM"}, {"measurement": "TGI", "setting": "[1]", "value": 3.38, "unit": "µM"}, {"measurement": "GI50", "setting": "[4]", "value": 1.19, "unit": "µM"}, {"measurement": "TGI", "setting": "[4]", "value": 2.46, "unit": "µM"}, {"measurement": "GI50", "setting": "[6]", "value": 1.78, "unit": "µM"}, {"measurement": "TGI", "setting": "[6]", "value": 3.26, "unit": "µM"}, {"measurement": "GI50", "setting": "[9]", "value": 1.6, "unit": "µM"}, {"measurement": "TGI", "setting": "[9]", "value": 3.01, "unit": "µM"}]}, {"compound": "O=C1C2C3C=C4c5ccccc5N(c5ccccc5)C4(C2C(=O)N1c1ccc(Cl)cc1)[C@H]1C(=O)N(c2ccc(Cl)cc2)C(=O)[C@@H]31", "note": "(stereo partly specified)", "values": [{"measurement": "TGI", "setting": "[1]", "value": "> 100", "unit": "µM"}, {"measurement": "TGI", "setting": "[2]", "value": "> 100", "unit": "µM"}, {"measurement": "TGI", "setting": "[3]", "value": "> 100", "unit": "µM"}, {"measurement": "TGI", "setting": "[4]", "value": "> 100", "unit": "µM"}, {"measurement": "TGI", "setting": "[5]", "value": "> 100", "unit": "µM"}, {"measurement": "TGI", "setting": "[6]", "value": "> 100", "unit": "µM"}, {"measurement": "TGI", "setting": "[7]", "value": "> 100", "unit": "µM"}, {"measurement": "TGI", "setting": "[8]", "value": "> 100", "unit": "µM"}]}, {"compound": "CC(=O)NNc1nc(C)c(C(=O)/C=C/c2ccccc2Cl)s1", "values": [{"measurement": "TGI", "setting": "[1]", "value": "> 100", "unit": "µM"}, {"measurement": "TGI", "setting": "[2]", "value": "> 100", "unit": "µM"}, {"measurement": "TGI", "setting": "[4]", "value": "> 100", "unit": "µM"}, {"measurement": "TGI", "setting": "[5]", "value": "> 100", "unit": "µM"}, {"measurement": "TGI", "setting": "[7]", "value": "> 100", "unit": "µM"}, {"measurement": "TGI", "setting": "[8]", "value": "> 100", "unit": "µM"}]}, {"compound": "N.N.N.N.N.[Cl-].[Co+3].c1ccc(-c2nn[n-]n2)cc1", "values": [{"measurement": "GI50", "setting": "[2]", "value": "> 100", "unit": "µM"}, {"measurement": "TGI", "setting": "[2]", "value": "> 100", "unit": "µM"}, {"measurement": "GI50", "setting": "[3]", "value": "> 100", "unit": "µM"}, {"measurement": "TGI", "setting": "[3]", "value": "> 100", "unit": "µM"}, {"measurement": "GI50", "setting": "[4]", "value": "> 100", "unit": "µM"}, {"measurement": "TGI", "setting": "[4]", "value": "> 100", "unit": "µM"}, {"measurement": "GI50", "setting": "[5]", "value": "> 100", "unit": "µM"}, {"measurement": "TGI", "setting": "[5]", "value": "> 100", "unit": "µM"}, {"measurement": "GI50", "setting": "[6]", "value": "> 100", "unit": "µM"}, {"measurement": "TGI", "setting": "[6]", "value": "> 100", "unit": "µM"}, {"measurement": "GI50", "setting": "[7]", "value": "> 100", "unit": "µM"}, {"measurement": "TGI", "setting": "[7]", "value": "> 100", "unit": "µM"}, {"measurement": "GI50", "setting": "[8]", "value": "> 100", "unit": "µM"}, {"measurement": "TGI", "setting": "[8]", "value": "> 100", "unit": "µM"}]}]}
